# Source: article PMC10011554, “BET inhibitor trotabresib in heavily pretreated patients with solid tumors and diffuse large B-cell lymphomas” (Nature Communications, 2023)
# Where “and” joins values, the source holds several entries; their conditions need not be identical. Equal values may be shown once. Read-outs that look alike come from different tables or passages of the source.
# Key:
# CYP2C9 = system: CYP2C9; parameters: method as in Investigator's Brochure; conditions: CYP2C9, ref Investigator's Brochure; read-out: IC50, direct inhibition; cited from earlier work
# [1] = system: FOSL1 gene expression in U-87 glioblastoma cells; parameters: method as in Investigator's Brochure; conditions: U-87 cells, ref Investigator's Brochure; read-out: IC50, inhibition of FOSL1 gene expression; cited from earlier work
# [2] = system: TNBR3 TNBC PDX-derived model; parameters: method as in Investigator's Brochure; conditions: TNBR3, ref Investigator's Brochure; read-out: IC50, colony formation; cited from earlier work
# WSU-DLCL2 (DOX-R) = system: WSU-DLCL2 (DOX-R); parameters: method as in Report CC-90010-Pharm-1018; conditions: Table 2, ref Report CC-90010-Pharm-1018, read-out: absolute IC50, proliferation; cited from earlier work
# [3] = parameters: method as in Investigator's Brochure; conditions: dogs, ref Investigator's Brochure, cited from earlier work
# [4] = system: BR0869f ER-PR-Her2+ PDX-derived breast cancer model; parameters: method as in Investigator's Brochure; conditions: 7 or 14 days, ref Investigator's Brochure, read-out: mean IC50, colony formation; cited from earlier work
# CCR1 mRNA = assay: Blood CCR1 mRNA levels (QuantiGene, normalized to PPIB); format: in vivo, human; conditions: for decrease of blood PD marker CCR1 achieved: part A
# Experimental: Changes in peripheral CCR1 mRNA levels, expression of which is modulated following BET inhibition, were assessed using QuantiGene technology (Thermo Fisher Scientific) and normalized to the expression of a control gene, peptidylprolyl isomerase B (PPIB). The data were presented as a percentage of pre-dose mRNA levels.
# P-gp = system: P-gp; parameters: method as in Investigator's Brochure; conditions: ref Investigator's Brochure; cited from earlier work
# [5] = parameters: method as in Investigator's Brochure; conditions: ref Investigator's Brochure, cited from earlier work
# SU-DHL-4 (DOX-R) = system: SU-DHL-4 (DOX-R); parameters: method as in Report CC-90010-Pharm-1018; conditions: Table 2, ref Report CC-90010-Pharm-1018, read-out: absolute IC50, proliferation; cited from earlier work
# GBM3 GBM PDX = system: GBM3 GBM PDX; parameters: method as in Unpublished data from Celgene Corporation; conditions: ref Unpublished data from Celgene Corporation, cited from earlier work
# OAT3 = system: OAT3; parameters: method as in Investigator's Brochure; conditions: OAT3, 30 µM, ref Investigator's Brochure; cited from earlier work
# [6] = system: 14 PDX-derived GBM tumor models; parameters: method as in Investigator's Brochure; conditions: ref Investigator's Brochure, cited from earlier work
# [7] = system: MYC expression in COH70 TNBC PDX tumor; parameters: method as in Investigator's Brochure; conditions: ref Investigator's Brochure, cited from earlier work
# [8] = parameters: method as in Unpublished data from Celgene Corporation; conditions: after final dose, ref Unpublished data from Celgene Corporation, cited from earlier work
# FARAGE (GCB DLBCL) = system: FARAGE (GCB DLBCL); parameters: method as in Report CC-90010-Pharm-1018; conditions: read-out: absolute IC50, proliferation, cited from earlier work
# [9] = system: CYP1A2, CYP2B6 and CYP3A4 mRNA; parameters: method as in Investigator's Brochure; conditions: 0.01 to 10 µM, up to 3 days, CYP1A2, CYP2B6, CYP3A4, ref Investigator's Brochure; cited from earlier work
# [10] = system: COH69 TNBC PDX-derived model; parameters: method as in Investigator's Brochure; conditions: COH69, ref Investigator's Brochure; read-out: IC50, colony formation; cited from earlier work
# CYP2C19 = system: CYP2C19; parameters: method as in Investigator's Brochure; conditions: CYP2C19, ref Investigator's Brochure; read-out: IC50, direct inhibition; cited from earlier work
# RC-K8 (ABC DLBCL) = system: RC-K8 (ABC DLBCL); parameters: method as in Report CC-90010-Pharm-1018; conditions: RC-K8, Experiment 1, ref Report CC-90010-Pharm-1018; read-out: absolute IC50, proliferation; cited from earlier work
# KARPAS-422 (GCB DLBCL) = system: KARPAS-422 (GCB DLBCL); parameters: method as in Report CC-90010-Pharm-1018; conditions: KARPAS-422, Experiment 1, ref Report CC-90010-Pharm-1018; read-out: absolute IC50, proliferation; cited from earlier work
# SU-DHL-4 (GCB DLBCL) = system: SU-DHL-4 (GCB DLBCL); parameters: method as in Report CC-90010-Pharm-1018; conditions: read-out: absolute IC50, proliferation, cited from earlier work
structure (smiles),measurement,setting,value
Cn1cc(-c2cc(S(C)(=O)=O)ccc2OCC2CC2)c2ccccc2c1=O [trotabresib],IC50,CYP2C9,≥ 13.9 µM
same,IC50,[1],0.03 µM
same,IC50,[2],0.08 µM
same,IC50,WSU-DLCL2 (DOX-R),~0.36 µM
same,mean oral bioavailability,[3],76%
same,accumulation after repeat dosing,[3]; toxicokinetics,up to 3 fold
same,IC50,[4],0.12 ± 0.01 µM
same,decrease of blood PD marker CCR1 achieved,"CCR1 mRNA; 30 mg 3-days-on/11-days off, 4 hours post last dose in the first cycle",≥ 50%
same,decrease of blood PD marker CCR1 achieved,CCR1 mRNA; 45 mg 4-days-on/24-days-off,≥ 50%
same,"percentage of baseline CCR1 expression, individual patients","CCR1 mRNA; part B, 30 mg/day (n = 2), 4 h after last dose",13.4467 % of baseline and 130.198 % of baseline
same,"percentage of baseline CCR1 expression, individual patients","CCR1 mRNA; part B, 30 mg/day (n = 3), 4 h after first dose",50.27 % of baseline and 55.3963 % of baseline and 80.5103 % of baseline
same,Mean CCR1 mRNA level,"CCR1 mRNA; part B, 45 mg/day 4 days on/24 days off, 4 h after the first and last dose",< 50 % of baseline
same,mean reduction of blood CCR1 mRNA,"CCR1 mRNA; part B, 45 mg/day 4 days on/24 days off, after the first and last dose",> 50%
same,"percentage of baseline CCR1 expression, individual patients Pt 1-16","CCR1 mRNA; part B, 45 mg/day 4 days on/24 days off, time 2 h",30.5369 % of baseline and 28.4986 % of baseline and 30.4914 % of baseline and 56.7025 % of baseline and 34.2349 % of baseline and 126.292 % of baseline and 41.5689 % of baseline and 39.5781 % of baseline and 38.6952 % of baseline
same,"percentage of baseline CCR1 expression, individual patients Pt 1-16","CCR1 mRNA; part B, 45 mg/day 4 days on/24 days off, time 72 h",11.6428 % of baseline and 66.6434 % of baseline and 61.1466 % of baseline and 71.42 % of baseline and 107.064 % of baseline and 92.4076 % of baseline and 206.706 % of baseline and 11.5951 % of baseline and 29.4034 % of baseline and 32.6074 % of baseline and 46.3108 % of baseline and 35.5399 % of baseline and 51.254 % of baseline and 16.3541 % of baseline and 56.3318 % of baseline and 47.472 % of baseline
same,"percentage of baseline CCR1 expression, individual patients Pt 1-16","CCR1 mRNA; part B, 45 mg/day 4 days on/24 days off, time 74 h",7.664 % of baseline and 43.5783 % of baseline and 101.397 % of baseline and 68.6148 % of baseline and 66.624 % of baseline and 90.5744 % of baseline and 6.3621 % of baseline and 11.918 % of baseline and 23.0451 % of baseline and 38.3287 % of baseline and 18.1003 % of baseline and 30.2477 % of baseline and 30.0183 % of baseline and 30.3305 % of baseline
same,"percentage of baseline CCR1 expression, individual patients Pt 1-16","CCR1 mRNA; part B, 45 mg/day 4 days on/24 days off, time 76 h",7.416 % of baseline and 22.7163 % of baseline and 45.8741 % of baseline and 84.9845 % of baseline and 62.1329 % of baseline and 102.299 % of baseline and 97.8745 % of baseline and 12.7872 % of baseline and 26.7231 % of baseline and 38.7251 % of baseline and 59.7173 % of baseline and 32.5849 % of baseline and 15.5412 % of baseline and 32.2909 % of baseline and 34.1593 % of baseline
same,"percentage of baseline CCR1 expression, individual patients Pt 1-16","CCR1 mRNA; part B, 45 mg/day 4 days on/24 days off, time 96 h",18.2209 % of baseline and 101.061 % of baseline and 57.0673 % of baseline and 66.6995 % of baseline and 126.329 % of baseline and 107.431 % of baseline and 11.7759 % of baseline and 20.7746 % of baseline and 24.4742 % of baseline and 39.7466 % of baseline and 30.1049 % of baseline and 35.253 % of baseline and 12.8666 % of baseline and 60.4272 % of baseline and 48.4025 % of baseline
same,"percentage of baseline CCR1 expression, individual patients Pt 1-16","CCR1 mRNA; part B, 45 mg/day 4 days on/24 days off, time 168 h",1110.93 % of baseline and 46.7528 % of baseline and 137.362 % of baseline and 245.348 % of baseline and 178.841 % of baseline and 306.585 % of baseline and 142.224 % of baseline and 191.429 % of baseline and 72.8857 % of baseline and 69.6406 % of baseline and 101.659 % of baseline and 69.3899 % of baseline and 160.385 % of baseline and 78.4141 % of baseline and 220.588 % of baseline
same,"percentage of baseline CCR1 expression, individual patients Pt 1-16","CCR1 mRNA; part B, 45 mg/day 4 days on/24 days off, time 192 h",44.5123 % of baseline and 125.959 % of baseline and 259.615 % of baseline and 202.75 % of baseline and 242.493 % of baseline and 146.374 % of baseline and 154.035 % of baseline and 288.7 % of baseline and 109.004 % of baseline and 72.27 % of baseline and 78.3761 % of baseline and 79.513 % of baseline and 168.811 % of baseline and 147.701 % of baseline and 179.93 % of baseline
same,"percentage of baseline CCR1 expression, individual patients","CCR1 mRNA; part B, 45 mg/day (n = 15), 4 h after last dose",26.7231 % of baseline and 32.2909 % of baseline and 32.5849 % of baseline and 34.1593 % of baseline and 38.7251 % of baseline and 45.8741 % of baseline and 59.7173 % of baseline and 62.1329 % of baseline and 84.9845 % of baseline and 97.8745 % of baseline and 102.299 % of baseline and 7.416 % of baseline and 12.7872 % of baseline and 15.5412 % of baseline and 22.7163 % of baseline
same,"percentage of baseline CCR1 expression, individual patients","CCR1 mRNA; part B, 45 mg/day (n = 16), 4 h after first dose",31.799 % of baseline and 32.0053 % of baseline and 36.1061 % of baseline and 40.3422 % of baseline and 46.5342 % of baseline and 46.6648 % of baseline and 52.9092 % of baseline and 58.7813 % of baseline and 59.2329 % of baseline and 60.0574 % of baseline and 60.1703 % of baseline and 87.3968 % of baseline and 24.9251 % of baseline and 27.9014 % of baseline and 28.1552 % of baseline and 31.5602 % of baseline
same,transporter substrate status,P-gp,substrate of P-gp
same,severely toxic dose,"[5]; 4-week rat study, 3 days on/4 days off",≥ 20 mg base/kg/dose
same,overarching rat STD10,[5]; 3 days-on/4 days-off schedule,20 mg base/kg/dose
same,STD10,[5]; female rats,20 mg base/kg/dose
same,STD10,[5]; male rats,30 mg base/kg/dose
same,functional observational battery (FOB) effects,[5]; rat,no CC-90010-related FOB effects
same,mean exposure corresponding to the rat STD10,[5],52.8 µg·h/mL
same,IC50,SU-DHL-4 (DOX-R),0.899 µM
same,TGI,"GBM3 GBM PDX; GBM3, 6 mg/kg orally BID",76%
same,TGI,"GBM3 GBM PDX; GBM3, 12 mg/kg orally QD",63%
same,inhibition of mediated transport,OAT3,53.6%
same,IC50,"[6]; read-out: overall mean IC50, colony formation",0.62 ± 0.13 µM
same,activity range of IC50 values,[6],18 fold
same,maximal suppression of MYC expression,"[7]; COH70, 2 mg/kg, at 2 hours",51.3%
same,maximal suppression of MYC expression,"[7]; COH70, 10 mg/kg, at 4 hours",63.4%
same,"AUC0-24hr, steady state",[8]; 12.5 mg/kg,"12,003 ng·hr/mL"
same,"AUC0-24hr, steady state",[8]; 16 mg/kg,"15,174 ng·hr/mL"
same,IC50,"FARAGE (GCB DLBCL); FARAGE, Experiment 1, ref Report CC-90010-Pharm-1018",0.71 µM
same,IC50,"FARAGE (GCB DLBCL); Farage, Experiment 2, ref Report CC-90010-Pharm-1018",3.35 µM
same,increase in mRNA over vehicle control,[9],< 2 fold
same,IC50,[10],0.07 µM
same,IC50,CYP2C19,≥ 13.9 µM
same,IC50,RC-K8 (ABC DLBCL),0.13 µM
same,IC50,KARPAS-422 (GCB DLBCL),0.32 µM
same,IC50,"SU-DHL-4 (GCB DLBCL); SU-DHL-4, Experiment 1, ref Report CC-90010-Pharm-1018",0.16 µM
same,IC50,"SU-DHL-4 (GCB DLBCL); SU-DHL-4, Table 2, ref Report CC-90010-Pharm-1018",0.304 µM
